Experimental data: patent US10004225B2, “Wearable insect repelling patch” (S. C. Johnson & Son, Inc., priority 2005, dated 2018)

Assays:
mosquitoes [1] = test: Three-chamber test apparatus, mosquito personal area repellency of hung patches with human test subject as attractant; type: in vivo; conditions: Example 1, 2 patches 103 cm^2, 60 mg each; for % Repellency: no adhesive
Description: Various patch sizes and insect repellents were tested, initially using the test apparatus shown schematically generally at 20 in FIG. 3. The test apparatus 20 has a sample chamber 22, connected to a mosquito chamber 24, which is connected via an opening 34 to a remote chamber 26. Each chamber is generally cubical, with a volume of about 0.43 m^3.
The sample chamber 22 has an open end 28 on the side remote from the mosquito chamber 24. A screen 30 divides the sample chamber 22 from the mosquito chamber 24. The opening 34 between the mosquito chamber 24 and the remote chamber 26 is slightly constricted by side walls 32. However, the opening 34 is still sufficiently large that mosquitoes can freely move between the mosquito and remote chambers 24 and 26.
Four, screened, low-flow exhaust ports 36 are located in the side walls 32, the exhaust ports facing the open end 28. Air is drawn through the exhaust ports 36 and exhausted from the mosquito chamber 24 at a rate sufficient to draw air in through the open end 28 but insufficient to affect the flying of mosquitoes placed in the mosquito chamber 24 or to disturb the air in the remote chamber 26.
For each test, a human test subject 38 is placed at the open end 28 of the sample chamber 22, the test subject's breath providing the warmth, CO2, and moisture known to be human attractants for mosquitoes. The exhaust ports 36 pull air, along with those attractants, though the open end 28 and on through the sample chamber 22, the screen 30, and the mosquito chamber 24. The attractants thus leave the apparatus 20 without entering the remote chamber 26.
Mosquitoes are placed in the mosquito chamber 24 and are quickly attracted to the screen 30 by the human attractants. The open end 28 is large enough to expose primarily the upper torso and head of the test subject. Two patches 10 are hung one foot into the sample chamber 22 and approximately 20 cm down from the chamber's top (except as was done otherwise in particular experiments, as is noted, below).
Percent repellency was calculated as the percent of mosquitoes that had been initially introduced into the mosquito chamber 24 (most of which were attracted to the screen 30 before the patches 10 were put in place), that then were repelled from the screen when the patches were introduced. The “repellency” indicated in the table, below, for time zero reflects the mosquitoes that were not yet attracted to the screen 30 by the time the test patches 10 were introduced. […] The patches 10 used were 103 cm^2 in size, with no adhesive layer 18.
The patch material was a non-woven cloth material comprised of rayon, polyester, and polypropylene (as described in published U.S. Patent Application US20040082248), dosed with 60 mg of the active ingredient. The controls used no patches.
The same test apparatus 20 was used in the same way as described in Example 1, with the following changes. When a test included four patches 10, two were hung as in Example 1, and two were hung about 13 cm from the bottom of the chamber to simulate patches worn on the shoulders and at the waist of a user. In one test, as indicated in the table, below, the patches 10 were attached to the test subject's chest. Each individual patch was treated with the amount of insect repellent indicated. Time is shown in minutes.

mosquitoes [2] = test: Additional field tests with FIG. 4 type patches, wrist bands and ankle bands; type: in vivo; conditions: 7.5 cm×7.5 cm patches, 10 mg each, two or four patches, one or two wrist bands, five to sixty minute monitoring, heavy mosquito populations
Description: We then tried some additional field tests with respect to mosquitoes using FIG. 4 type patches. Patches were made be adhering a multi-layer non-woven cloth made of rayon, polyester, polypropylene, and polyethylene fibers 30 to a multi-laminate foil film 34 with strips of 3M double facing tape 32. The cloth was 7.5 cm×7.5 cm in top view, and the dosing included for each patch 10 mg of metofluthrin dissolved in 2.53 ml of acetone.
We then sealed the patches in towelette pouches for storage prior to use. When the patch was to be used, we opened the pouch by tearing it open, removed the patch, peeled off the multi-laminate foil, and attached the cloth/tape structure to the specified locations.
We tested the use of two patches, the use of four patches, the use of one or two wrist bands, and the use of one or two ankle bands. All achieved over 50% repellency throughout a five minute to sixty minute monitoring under conditions of heavy mosquito populations.

[3] = @ 25° C.; cited from earlier work

Compound: CC=C[C@@H]1[C@@H](C(=O)OCc2c(F)c(F)c(COC)c(F)c2F)C1(C)C (racemic) [metofluthrin, 2,3,5,6-tetrafluoro-4-methoxymethylbenzyl (EZ)-(1RS,3RS)-2,2-dimethyl-3-(prop-1-enyl)-cyclopropanecarboxylate]
- personal area repellency (result in words) (mosquitoes [1]): successful personal area repellency
- % Repellency (mosquitoes [1]; 5 min): 72%
- % Repellency (mosquitoes [1]; 10 min): 92%
- % Repellency (mosquitoes [1]; 15 min): 96%
- % Repellency (mosquitoes [1]; 20 min): 98%
- % Repellency (mosquitoes [1]; time 0 min (mosquitoes not yet attracted to screen)): 10%
- repellency (mosquitoes [2]): over 50%
- Vapor pressure [3]: 3.4 × 10^−6 mmHg @
